Source: ChEMBL document CHEMBL5126665, “A Dimerosesquiterpene and Sesquiterpene Lactones from Artemisia argyi Inhibiting Oncogenic PI3K/AKT Signaling in Melanoma Cells” (J Nat Prod, 2022)
Calls of active or inactive are those of the source. No cut-off for these calls is given here.

Legend:
Type in all cases: cell-based
[1] = Inhibition of PI3K/AKT signalling pathway in human MM121224 cells stably expressing H2B-mTurquoise, ERK-KTR-mScarlet and FoxO3a-KTR-mNeonGreen fluorophore assessed as AKT activity by high-content screening microscopic analysis
[2] = tested on: MM121224; experiment: Inhibition of PI3K/AKT signalling pathway in human MM121224 cells assessed as downregulation of AKT phosphorylation at Ser473 residue by immunostaining based analysis
[3] = Toxicity against human MM121224 cells at 50 to 200 uM by high-content screening microscopic analysis; settings: mm121224, 200 µM, dose 50-200 µM
[4] = tested on: MM121224; experiment: Inhibition of PI3K/AKT signalling pathway in human MM121224 cells stably expressing H2B-mTurquoise, ERK-KTR-mScarlet and FoxO3a-KTR-mNeonGreen fluorophore assessed as AKT activity at 25 uM by high-content screening microscopic analysis

Row | Compound | IC50 [1] | other results
1 | C=C1C(=O)O[C@H]2[C@H]1CC[C@@](C)(O)[C@]13C=C[C@@](C)([C@H]21)[C@@]1(C3)C(=O)C[C@]2(C(C)C)C[C@@H]21 | 26.5 µM | 
2 | C=C1C(=O)O[C@H]2[C@H]1[C@@H](OC(=O)C(C)CC)CC(=C)[C@]1(O)C[C@H]3O[C@@]3(C)[C@H]21 (stereo partly specified) | 14.2 µM | 
3 | C=C1C(=O)O[C@H]2[C@H]1CC[C@@](C)(O)[C@@]13O[C@@H]1[C@@H]1O[C@]1(C)[C@H]23 | 38.4 µM | 
4 | C=C1C(=O)O[C@H]2[C@H]1[C@@H](OC(C)=O)CC(C)=C1C[C@H]3O[C@@]3(C)[C@@H]12 | 25.9 µM | 
5 | C=C1C(=O)O[C@@H]2C3=C(C)C(=O)C[C@@H](O)[C@]3(C)CC[C@@H]12 | 11.2 µM | inhibition [2]: Active
6 | C=C1C(=O)O[C@H]2[C@H]1[C@@H](OC(C)=O)CC(=C)[C@]1(O)C[C@H]3O[C@@]3(C)[C@H]21 | 46.2 µM | 
7 | C=C1C(=O)O[C@H]([C@H]2C(=O)C=C[C@@]2(C)O)[C@H]1CCC(C)=O | 38 µM | 
8 | C=C1C(=O)O[C@@H]2[C@H]3C(C)=CC(=O)C3=C(C)CC[C@@H]12 [DEHYDROLEUCODIN] | 23.6 µM | 
9 | C=C1C(=O)O[C@H]([C@@H]2C(=O)C=C[C@]2(C)O)[C@H]1CCC(C)=O [SECOTANAPARTHOLIDE B] | 22.5 µM | 
10 | C=C1C(=O)O[C@H]2[C@H]1CC[C@@](C)(O)[C@]13O[C@H]1[C@H]1O[C@@]1(C)[C@H]23 [ARTECANIN] | 119 µM | 
11 | C=C1C(=O)O[C@@H]2[C@H]3C(C)=CC(=O)C3=C(C)C[C@H](OC(=O)/C(C)=C\C)[C@@H]12 | 9.8 µM | 
12 | C=C(C(=O)OC)[C@@H]1CC[C@]2(C)C(=C(C)C(=O)C[C@H]2O)[C@H]1O | 22.1 µM | inhibition [2]: Active
13 | C=C1C(=O)O[C@@H]2[C@H]3C(C)=CC(=O)C3=C(C)C[C@H](OC(=O)C=C(C)C)[C@@H]12 | 8.9 µM | Activity [3]: Toxic; inhibition [4]: Active; inhibition [2]: Active
14 | C=C1C(=O)O[C@H]2[C@H]1[C@@H](OC(=O)CC(C)C)CC(=C)[C@]1(O)C[C@H]3O[C@@]3(C)[C@H]21 | 14.2 µM | 
15 | C=C1C(=O)O[C@@H]2[C@H]3C(C)=CC[C@@H](O)[C@]3(C)CC[C@@H]12 [SANTAMARIN] | 52.7 µM | 
16 | C=C1C(=O)O[C@H](C2=C(C)[C@H](OC(C)=O)CC2=O)[C@H]1CCC(C)=O | 25.1 µM | inhibition [2]: Active
17 | C=C1C(=O)O[C@@H]2[C@@H]3[C@@]4(C=C[C@@]3(C)[C@@]3(C4)C(=O)O[C@@H]4[C@H]5C(C)=CC(=O)C5=C(C)C[C@H](OC(C)=O)[C@H]43)[C@](C)(O)CC[C@@H]12 | 14.7 µM | 
18 | C=C1C(=O)O[C@@H]2[C@H]3C(C)=CC(=O)C3=C(C)C[C@H](OC(=O)CC(C)C)[C@@H]12 | 15.3 µM | 
19 | C=C1C(=O)O[C@@H]2[C@@H]3[C@@]4(C=C[C@@]3(C)[C@]3(C4)C(=O)O[C@@H]4[C@H]5C(C)=CC(=O)C5=C(C)C[C@H](OC(C)=O)[C@H]43)[C@](C)(O)CC[C@@H]12 | 35.7 µM | inhibition [2]: Active
20 | C=C1C(=O)O[C@@H]2[C@H]3C(C)=CC(=O)C3=C(C)C[C@H](OC(C)=O)[C@@H]12 | 11 µM | 
21 | C=C1C(=O)O[C@H]2[C@H]1CC[C@@](C)(O)[C@@]13C=C[C@](C)([C@H]4[C@H](CC(=O)OC)[C@H](C/C=C\CC)C(=O)[C@H]41)[C@H]23 | 27.7 µM | inhibition [2]: Active
22 | C=C1C(=O)O[C@H]2[C@H]1[C@@H](OC(C)=O)C=C(C)[C@]1(O)C[C@H]3O[C@@]3(C)[C@H]21 | 22.9 µM | 
23 | C=C1C(=O)O[C@H]2[C@H]1[C@@H](OC(=O)CC(C)C)C=C(C)[C@]1(O)C[C@@H](O)[C@@](C)(O)[C@H]21 | 27.9 µM | 
24 | C=C1C(=O)O[C@H]2[C@H]1[C@@H](OC(=O)C(C)CC)C=C(C)[C@]1(O)C[C@@H](O)[C@@](C)(O)[C@H]21 (stereo partly specified) | 24.6 µM | 
25 | C=C1C(=O)O[C@H]2[C@H]1[C@@H](OC(=O)CC(C)C)CC(C)=C1C[C@H]3O[C@@]3(C)[C@@H]12 | 16.9 µM | 
26 | C=C1C(=O)O[C@@H]2[C@H]3C(C)=CC(=O)C3=C(C)C[C@H](O)[C@@H]12 | 15.1 µM | inhibition [2]: Active
27 | C=C1C(=O)O[C@@H]2[C@H]3C(C)=CC(=O)C3=C(C)C[C@H](OC(=O)C(C)CC)[C@@H]12 (stereo partly specified) | 27.7 µM | 
